Assays:
[1] = tested on: p21; assay: Immunostaining of senescence marker p21 in cardiac sections of doxorubicin-treated mice; type: in vivo; conditions: DOX cumulative 20 mg/kg over 4 weeks; vs saline; FIGS. 2A-2B
Method: Immunohistochemistry of p21: On the day of euthanasia, left ventricles were briefly rinsed with PBS and fixed for 16-24 h in a 4% formaldehyde solution (F8775, Sigma, diluted in PBS, pH=7.4). After fixation, tissues were transferred to 70% ethanol until inclusion in paraffin. Paraffin-embedded tissue were cut to 2-3 μm sections, air dried and let to dry completely at 60° C. overnight. Cell Conditioning 1 buffer (64/457,5001, Roche) was used for antigen retrieval, and casein (ref: 760-219, Roche) was used as blocking agent. The antibody directed against p21 (clone HUGO 291H/B5, CNIO) was diluted 1:50 in EnVision FLEX Antibody Diluent (K800621, Dako-Agilent). Staining was performed on the Ventana discovery XT platform for 60 minutes (ready-to-use). […] The specificity of the staining was assessed in each organ by using rat IgG isotype control (6-001-F, R&D Systems) as primary antibody.
Quantification of the p21 staining was done on the QuPath analysis software after blinding the samples names. […] Non-cardiomyocytes regions were excluded from the area of analysis and, after color deconvolution, a threshold was applied to automatically quantify the p21+ cardiomyocytes area. The average value in the 10 regions of interest was plotted for each animal, and analyzed by two-way ANOVA to determine the effect of doxorubicin treatment, ACBP/DBI neutralization, and their interaction.

[2] = tested on: doxorubicin (DOX)-treated C57Bl/6J female mice; assay: Anthracycline (doxorubicin)-induced cardiotoxicity model, echocardiography and organ weights; type: in vivo; conditions: chronic DOX, cumulative dose 20 mg/kg body weight IP over 4 weeks, vs saline
Method: Cardiac toxicity experiments: Eight-week-old C57Bl/6J female mice were purchased from Envigo (Gannat, France). Following 2 weeks of acclimatization, mice were randomized (1:1) to receive either mouse monoclonal anti-ACBP-neutralizing antibody (5 mg/kg body weight, injected intraperitoneally once per week) or mouse isotype IgG (negative control; 5 mg/kg body weight). Each group was further randomized (1:1) to receive a weekly intraperitoneal injection of saline or doxorubicin (5 mg/kg body weight; cumulative dose of 20 mg/kg body weight over 4 weeks) (Sigma, #MKCM8540). Of note, anti-ACBP was always administered 24 hours prior to doxorubicin injection. All mice used in this study were housed in a temperature-controlled environment with 12 h light/dark cycles and ad libitum access to food and water.
Echocardiography. Mice were lightly anesthetized (5% for induction; 1.5% isoflurane for maintenance) and body temperature was kept at 37° C. using a temperature-controlled heating platform. […] Ejection fraction was determined to assess systolic function, while diastolic function was evaluated using the ratio between peak early-filling velocity of transmitral flow (E) and the corresponding mitral valve annulus velocity (e′) determined using pulsed-wave and tissue Doppler imaging, respectively. […]

Structure (SMILES): COc1cccc2c1C(=O)c1c(O)c3c(c(O)c1C2=O)C[C@@](O)(C(=O)CO)C[C@@H]3O[C@H]1C[C@H](N)[C@H](O)[C@H](C)O1 [DOX, doxorubicin]
- p21 staining in cardiomyocytes [1]: increased the presence of p21 staining
- left ventricular ejection fraction ([2]; FIG. 1B): clearly reduced
- ventricular dilation ([2]; FIG. 1C): causing ventricular dilation

— patent publication US20260001949A1, “NEUTRALIZATION OF ACYL-COA BINDING PROTEIN FOR THE TREATMENT OF CARDIAC DYSFUNCTION” (INSERM (INSTITUT NATIONAL DE LA SANTÉ ET DE LA RECHERCHE …, priority 2022, published 2026)
